The assay concerns CEM cells HIV-1 protection, formazan growth assay. Kind of assay: NCI AIDS Antiviral Assay. The conditions noted are these: for IC50: measured here: growth of uninfected CEM cells. The gist of the method:
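Category rules: moderately active means at least 50% protection on retest, and confirmed active means 100% protection reproducibly. The underlying data came from a formazan growth assay in HIV-1-infected CEM cells.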

Structures are written as SMILES. Where “and” joins values, the source holds several entries; their conditions need not be identical. Equal values may be shown once. Calls of active or inactive are those of the source.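 Rule for the calls: active = compounds giving half or more protection of infected cells from virus-caused growth loss, again on retest; inactive = the rest.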 Bounds are passed on as bounds.

Regarding `CCCOc1nc(N)c2cnn(C3CCCCO3)c2n1` (stereo not given), the EC50 – broadly, the concentration that produces a half-maximal response – is above 912 µM and the concentration for half-maximal inhibition (IC50) (commonly the point on the concentration scale where inhibition reaches its midpoint) stood at 550 µM.

In the case of `Cc1ncc([N+](=O)[O-])n1CCN(C)C(=O)CCCn1ccnc1[N+](=O)[O-]`, the EC50 is above 200 µM and the IC50 is above 200 µM.

`CCOC(=O)NN(C(=O)OCC)C(=C(C1=CCCCC1)N1CCOCC1)N(NC(=O)OCC)C(=O)OCC`: the EC50 is above 200 µM and the IC50 was above 200 µM.

On to `CCOC(=O)C(=Cc1cccc(C#N)c1)C(=O)OCC`, for which the EC50 is above 132 µM and the half-maximal inhibitory concentration (IC50) was found to be 8.51 µM.

Take `COc1ccc([B-]23OCC[N+]2(CNC(=O)C2=C(O)C4(O)C(=O)C5=C(O)c6c(O)cccc6C(C)(O)C5CC4C(N(C)C)C2=O)CCO3)cc1` (stereo not given): the EC50 is above 100 µM and the IC50 was 47.9 µM.

Turning to `O=C1NC(N/N=C\c2ccccc2)=N/C1=C/c1ccccc1`, the EC50 was above 200 µM and the IC50 worked out at 35.5 µM.

As to `O=C(O)CCSSCCCCCS(=O)O`, the EC50 is above 200 µM and the IC50 was found to be 24 µM.

Take `Clc1ccc2c(c1)nnn1nccc21`: the EC50 is above 35.5 µM and the IC50 is above 35.5 µM.

Consider `Oc1c2c(c(O)c3ccccc13)=N[C@@H](c1ccccc1)[C@H](c1ccccc1)N=2`, for which the outcome was inactive.

For `COc1ccc2c(c1)OCC1Cc3cc4c(cc3OC21)OCO4` (stereo not given), the result was inactive.

As for `C/C(O)=C(\C=NC(=S)c1ccncc1)C(=O)Nc1ccccc1C`, the EC50 was above 200 µM and the IC50 is above 200 µM.

For the compound `COc1cc(/C=N/NC(=O)CC(=O)N(C(=O)c2ccc(Cl)cc2)c2ccc(C)cc2)ccc1O`, the EC50 was above 195 µM and the IC50 is above 195 µM.

Take `O=C1COc2ccc([N+](=O)[O-])cc2C(=O)C1`: the EC50 was above 200 µM and the IC50 is above 200 µM.

`Cc1ccc2[nH]c3c(c(=O)n(C)c(=O)n3C)c2c1`: the EC50 was above 200 µM and the concentration for half-maximal inhibition (IC50) is above 200 µM.

Take `CCCCn1c(C)c(C(=O)OCC)c2cc(OCc3ccc(C(=O)Nn4c(C)ccc4C)cc3)c(Br)cc21`: the EC50 is above 95.5 µM and the half-maximal inhibitory concentration (IC50) was above 95.5 µM.

`CCOc1ccc(NC(=O)C(=O)CC(=O)C2=C(C)Nc3ccccc3S2)cc1`: the EC50 is above 64.6 µM and the IC50 is above 64.6 µM.

Regarding `CCOC(=O)CC(=O)Sc1ccccc1`, the EC50 is above 251 µM and the IC50 amounted to 20.9 µM.

Regarding `O=C(Nc1ccc(Cl)cc1)NS(=O)(=O)c1coc2cc(F)ccc2c1=O`, the EC50 was above 200 µM and the IC50 turned out to be 63.1 µM.

For `CC1=C(c2cc(C(=O)Nc3ccc(Cl)cc3)nc(=S)[nH]2)Sc2ccccc2N1`, the EC50 is above 85.1 µM and the half-inhibitory concentration (IC50) was above 85.1 µM.

For `C=C1C(C(=O)O)C1C(=O)O` (stereo not given), the outcome was inactive.

Consider `O=Cc1[nH]c(=O)[nH]c(=O)c1CCl`, for which the EC50 was above 200 µM and the IC50 amounted to 35.5 µM.

Turning to `N#C/C(=C/c1ccco1)C(=O)c1ccccc1`, the EC50 was above 162 µM and the IC50 is above 162 µM.

As to `O=C1NC2(CCCCC2)N=C2C(Cl)CCCC12Cl` (stereo not given), the EC50 is above 200 µM and the IC50 is above 200 µM.

On to `O=[N+]([O-])c1ccc(CSCc2ccc([N+](=O)[O-])cc2)cc1`, for which the EC50 is above 200 µM and the IC50 was above 200 µM.

Turning to `N#Cc1c(N)c2c(c(-c3ccccc3)c1-c1ccccc1)C(=O)N(NC(=S)Nc1ccccc1)C2=O`, the EC50 was above 58.9 µM and the 50% inhibitory concentration (IC50) came out at 47.9 µM.

Turning to `COc1cccc2c1OC(c1ccc(Cl)cc1)C([N+](=O)[O-])=C2` (stereo not given), the EC50 was above 200 µM and the 50% inhibitory concentration (IC50) stood at 1.45 µM.

As for `S=c1[nH]nc2n1NC(c1ccccc1)=NN2`, the EC50 was above 295 µM and the IC50 is above 295 µM.

For `Cc1nc(N)nc(N)c1N1CCNCC1`, the EC50 was above 200 µM and the half-inhibitory concentration (IC50) was above 200 µM.

In the case of `COc1cc2c(cc1OC)C1C=NC(C2)c2cc(OC)c(OC)cc21` (stereo not given), the result was inactive.

For the compound `O=S(=O)(SC1=NCCN1)c1ccc2ccccc2c1`, the EC50 is 22.9 µM and the concentration for half-maximal inhibition (IC50) was 29.5 µM.

Turning to `CCCCCCCC(=O)OC[C@@H](C[As](=O)(O)O)OC(=O)CCCCCCC`, the EC50 was above 200 µM and the IC50 stood at 9.33 µM.

On to `N=C(N)c1ccc(/C=C/c2ccc(C(=N)N)cc2O)cc1`, for which the EC50 was above 1450 µM and the IC50 amounted to 55 µM.

In the case of `COC(=O)c1ccc(CSc2ccccc2C(=O)OC)cc1`, the EC50 was above 22.9 µM and the IC50 worked out at 19.1 µM.

With `OC(C/C(=N\N1CCCCC1)c1cccs1)(C(F)(F)F)C(F)(F)F`, the EC50 was above 200 µM and the IC50 was 145 µM.

As to `N#Cc1sc2c(c1OC(=O)c1ccc(C(F)(F)F)cc1)c(=O)n(-c1ccccc1)c(=S)n2-c1ccccc1`, the EC50 was above 200 µM and the half-inhibitory concentration (IC50) came out at 2.24 µM.

With `C/C=C1/CN2CCC34C5=CC(=O)C(c6cc7c(cc6OC)N(C)C6=C(C(=O)OC)CC8(CC)CCCN9CCC67C98)=CC5=NC23CCC1C4C(=O)OC` (stereo not given), the EC50 is above 200 µM and the IC50 amounted to 4.9 µM.

On to `O=C(N/N=C/c1ccco1)c1cccnc1`, for which the EC50 is above 200 µM and the IC50 is above 200 µM.

For `CC12C/C(=C\c3ccccc3)C(=O)C3C1CCCC32`, the outcome was inactive.

On to `CC(C)(C)C1=C(Br)C(C(C)(C)C)OP1(=O)O` (stereo not given), for which the EC50 was above 100 µM and the IC50 was above 100 µM.

Consider `CCCCCCCCCCCCCC(=O)CBr`, for which the result was inactive.

As for `CN(C)CCOC1(Cc2ccc(Cl)cc2Cl)CCC(C(C)(C)C)CC1` (stereo not given), the EC50 is above 200 µM; the 50% inhibitory concentration (IC50) is 2.14 µM and 3.72 µM.

As to `COC(=O)/C=C\C1C(C(=O)OC)C2(C(=O)OC)CCC1(C(=O)OC)N2` (stereo not given), the outcome was inactive.

As to `O=C1/C(=C\c2ccc([N+](=O)[O-])cc2)Sc2scc(-c3ccc(O)c(O)c3)[n+]21`, the EC50 is above 200 µM and the IC50 is 5.25 µM.

In the case of `S=C(Nc1cccc(-c2ccccc2)c1)Nc1ccc(Br)cn1`, the EC50 was above 200 µM and the half-inhibitory concentration (IC50) worked out at 1.17 µM.

For the compound `CCCCCCCN=C(N)CSSCC(N)=NCCCCCCC`, the EC50 was above 331 µM and the concentration for half-maximal inhibition (IC50) came to 10.2 µM.

On to `Cc1ccc(C(=O)Nc2ccc(CP(=O)(O)O)cc2)cc1NC(=O)c1cccc(N)c1`, for which the EC50 is above 200 µM and the IC50 is above 200 µM.

With `COc1cc(C2c3cccc4cccc(c34)C3CCC(=O)N32)cc(OC)c1O` (stereo not given), the EC50 is above 50.1 µM and the IC50 amounted to 1.32 µM.

For the compound `CC(=O)Nc1ccc(C2[C@H]3C(=O)N(c4ccc(Cc5ccc(N6C(=O)[C@@H]7ON(c8ccccc8)C(c8ccc(NC(C)=O)cc8)[C@@H]7C6=O)cc5)cc4)C(=O)[C@H]3ON2c2ccccc2)cc1` (stereo not given in full), the EC50 is above 6.03 µM and the IC50 was above 6.03 µM.

On to `O=C1OCC23CCC4C1C42CC1(CC3)OCCO1` (stereo not given), for which the EC50 is above 200 µM and the IC50 is above 200 µM.

In the case of `CCC12C=CCN3CC[C@@]4(c5cc([C@@]6(C(=O)OC)CC7CN(C[C@]8(CC)OC78)[C@H](CC(C)=O)Cc7c6[nH]c6ccccc76)c(OC)cc5N(C)[C@H]4[C@@](O)(C(=O)OC)[C@@H]1OC(C)=O)[C@H]32` (stereo not given in full), the result was inactive.

As for `COCCCCCCCCCCC(=O)OCC1OC(n2cc(C)c(=O)[nH]c2=O)CC1N=[N+]=[N-]` (stereo not given), the outcome was active and the IC50 was found to be 117 µM.

With `O=C(NCCCCCCCCCCNC(=O)c1cc(O)c(O)c(O)c1)c1cc(O)c(O)c(O)c1`, the EC50 is above 100 µM and the half-maximal inhibitory concentration (IC50) stood at 9.12 µM.

For `Cc1cc(C(C)C)cc(O)c(=O)c1`, the result was inactive.

As for `O=C(O)/C=C/SCCC(=O)O`, the EC50 is above 1410 µM and the IC50 is above 1410 µM.

As to `O=C1C=CC2O[C@H](c3ccccc3)[C@H](O)C2O1` (stereo not given in full), the EC50 was above 1070 µM and the half-inhibitory concentration (IC50) amounted to 5.37 µM.

`NC(=O)c1nnsc1NC=O`: the EC50 is above 200 µM and the IC50 was above 200 µM.

`CCC[CH2][Sn]([CH2]CCC)=[N]S(=O)(=O)c1ccc(Cl)c(C)c1`: the EC50 was above 0.2 µM and the half-inhibitory concentration (IC50) was 0.0851 µM.

As for `COc1ccc(C2CC(=O)c3c(cc(OC)c(O)c3OC)O2)cc1` (stereo not given), the EC50 was above 200 µM and the IC50 was found to be 32.4 µM.

With `O=Nc1c(-c2ccccc2)nc2ccccn12`, the EC50 was above 200 µM and the IC50 amounted to 38.9 µM.

In the case of `COC(=O)C1(O)C(c2ccccc2)=NC2(C)CCCC21` (stereo not given), the EC50 was above 200 µM and the IC50 was above 200 µM.

Turning to `CCOC(=O)c1c(NC(=S)Nc2ccc(Cl)cc2)sc2c1CCN(C)C2`, the EC50 is above 100 µM and the 50% inhibitory concentration (IC50) is above 100 µM.

Take `O=c1[nH]c(SCc2c(Cl)c(Cl)c(Cl)c(Cl)c2Cl)nc(=S)[nH]1`: the EC50 was above 200 µM and the 50% inhibitory concentration (IC50) was 83.2 µM.

In the case of `Nc1nccc(CC(O)(c2ccccc2)c2ccccc2)n1`, the EC50 was above 64.6 µM and the half-maximal inhibitory concentration (IC50) is above 64.6 µM.

As to `COc1ccc2c(c1)[n+]([O-])c(/C(C)=N/NC(=O)CC#N)c[n+]2[O-]`, the EC50 was above 16.6 µM and the IC50 is above 16.6 µM.

For the compound `OCc1c2c(cc3c1CC1(C3)Cc3cc4c(c(CO)c3C1)CCC4)CCC2`, the EC50 was above 200 µM and the IC50 worked out at 8.13 µM.

`CC(=O)N1CCSC(C(=O)Nc2ccccc2)=C1C`: the EC50 was above 646 µM and the IC50 was above 646 µM.

Turning to `O=C1OC(=O)C2=C1C1C=CC2O1`, the EC50 was above 1070 µM and the IC50 stood at 295 µM.

In the case of `CCOC(=O)c1c(C)[nH]c(=S)c(C#N)c1-c1ccc(Cl)cc1`, the EC50 is above 200 µM and the IC50 is 43.7 µM.

Regarding `COc1ccc2[nH]c3c4c(ccc3c2c1)C(=O)C=CC4=O`, the EC50 was above 93.3 µM and the 50% inhibitory concentration (IC50) turned out to be 4.47 µM.

For the compound `COC(=O)C12CCC(=O)N1CC(=O)c1c2[nH]c2ccccc12` (stereo not given), the result was inactive.

`N#CC1Sc2ccccc2-n2cccc21` (stereo not given): the result was inactive.

`COc1cccc2c1C1=CC(=O)CCC1C(C)(C)O2` (stereo not given): the EC50 is above 195 µM and the 50% inhibitory concentration (IC50) amounted to 110 µM.

Turning to `CC(=O)Nc1sccc1S(=O)(=O)c1ccsc1NC(C)=O`, the EC50 was above 200 µM and the half-inhibitory concentration (IC50) came to 5.62 µM.

Source of the values: PubChem BioAssay AID179 (DTP/NCI, 2004).
